Results published in patent publication US12649750B2, “Macrocyclic compounds, compositions, and methods of using thereof” (Sionna Therapeutics Inc., priority 2022, dated 2026).
Where two headings read alike, the source gives them in different places.

Assays:
CFTR = target: T1, CFTR (Homo sapiens, UniProt P13569, DEL508-508); experiment: TECC24 AUC fold over DMSO @10 μM, CFTR-mediated transepithelial chloride transport in CF-HBE cells; type: cell-based; conditions: test agent AUC divided by DMSO vehicle AUC, primary CF-HBE cells, ΔF508 homozygous donor, 48 hours incubation
T1 construct: Primary human bronchial epithelial cells from a ΔF508 homozygous CF donor; host or cells: primary human bronchial epithelial cells (CF-HBE), ΔF508 homozygous donor
How it was run: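 Value is ratio of test-agent to DMSO AUC of equivalent transepithelial Cl− current, integrated from forskolin (10 μM) stimulation to CFTR inhibitor-172 (20 μM) block, with benzamil 10 μM present. CF-HBE (ΔF508/ΔF508) cultures had 48 h compound exposure at 10 μM, 36.5° C before recording.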

NBD1 = target: T2, NBD1 (Homo sapiens, UniProt P13569); experiment: Aggregation analysis using differential static light scattering (DSLS), thermal stability of NBD1 (ΔTagg); type: binding; conditions: ΔTagg versus DMSO control, NBD1 0.2 mg/ml
T2 construct: Purified recombinant NBD1 was produced using previously described methods; made in house
How it was run: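 Thermal aggregation of purified NBD1 was followed by static light scattering during a 1° C./min ramp to 70° C. Protein was at 0.2 mg/ml with 2 mM ATP at pH7.6. Each compound's Tagg was referenced to DMSO controls.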

T1 sequence (P13569 with tags, fused parts or gaps DEL508-508): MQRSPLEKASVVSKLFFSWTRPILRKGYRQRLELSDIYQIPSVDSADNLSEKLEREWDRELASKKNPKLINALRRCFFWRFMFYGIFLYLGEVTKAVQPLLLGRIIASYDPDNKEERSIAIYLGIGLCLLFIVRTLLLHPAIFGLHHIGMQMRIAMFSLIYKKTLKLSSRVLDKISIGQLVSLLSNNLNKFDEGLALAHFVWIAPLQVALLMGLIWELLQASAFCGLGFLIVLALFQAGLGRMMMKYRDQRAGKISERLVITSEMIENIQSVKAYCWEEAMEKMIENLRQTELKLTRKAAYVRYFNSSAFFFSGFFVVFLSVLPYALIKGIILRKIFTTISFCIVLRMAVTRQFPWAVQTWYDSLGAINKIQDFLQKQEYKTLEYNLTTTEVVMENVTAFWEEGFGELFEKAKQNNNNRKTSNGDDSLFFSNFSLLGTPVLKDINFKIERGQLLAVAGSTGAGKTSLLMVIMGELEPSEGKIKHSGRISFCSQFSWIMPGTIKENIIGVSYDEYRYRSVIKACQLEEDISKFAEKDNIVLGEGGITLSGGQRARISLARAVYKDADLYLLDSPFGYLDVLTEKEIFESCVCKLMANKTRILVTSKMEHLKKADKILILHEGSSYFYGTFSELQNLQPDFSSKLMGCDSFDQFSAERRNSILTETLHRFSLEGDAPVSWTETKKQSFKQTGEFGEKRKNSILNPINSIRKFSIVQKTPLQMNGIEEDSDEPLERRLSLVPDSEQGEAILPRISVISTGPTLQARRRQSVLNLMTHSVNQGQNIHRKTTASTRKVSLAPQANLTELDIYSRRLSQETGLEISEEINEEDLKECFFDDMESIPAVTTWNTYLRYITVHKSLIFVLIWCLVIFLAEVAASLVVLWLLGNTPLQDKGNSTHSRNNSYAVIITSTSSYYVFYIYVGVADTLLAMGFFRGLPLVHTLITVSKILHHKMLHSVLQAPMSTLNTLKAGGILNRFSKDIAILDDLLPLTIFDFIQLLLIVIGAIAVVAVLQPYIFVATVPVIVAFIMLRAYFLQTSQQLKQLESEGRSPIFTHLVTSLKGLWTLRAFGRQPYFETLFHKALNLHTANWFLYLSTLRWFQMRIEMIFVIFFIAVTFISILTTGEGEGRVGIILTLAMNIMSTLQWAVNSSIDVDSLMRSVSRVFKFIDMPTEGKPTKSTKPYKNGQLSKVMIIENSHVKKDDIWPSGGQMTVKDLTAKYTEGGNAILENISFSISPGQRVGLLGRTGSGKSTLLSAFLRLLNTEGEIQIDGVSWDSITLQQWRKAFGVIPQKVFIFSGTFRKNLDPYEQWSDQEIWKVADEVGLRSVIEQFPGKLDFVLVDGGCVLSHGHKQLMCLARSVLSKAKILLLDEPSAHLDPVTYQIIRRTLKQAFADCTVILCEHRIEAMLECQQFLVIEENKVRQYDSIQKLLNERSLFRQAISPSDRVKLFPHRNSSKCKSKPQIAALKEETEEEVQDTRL
T2 sequence (P13569 423-646 limits assumed): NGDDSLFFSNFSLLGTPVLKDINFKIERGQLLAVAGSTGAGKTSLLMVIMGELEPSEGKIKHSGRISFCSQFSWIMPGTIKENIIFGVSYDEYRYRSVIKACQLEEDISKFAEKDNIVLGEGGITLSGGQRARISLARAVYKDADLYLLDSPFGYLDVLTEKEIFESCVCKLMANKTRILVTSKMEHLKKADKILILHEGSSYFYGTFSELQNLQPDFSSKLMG

With `C=CS(=O)(=O)CC(C)(C)CCC[C@](C)(c1cccc(C[C@H](C)C(=O)OC)c1)c1nc(-c2cc(Oc3cc4cc[nH]c4c(F)c3F)ccc2F)n(C)n1` the ring closure, isolated yield (the molecule shown is the open-chain precursor, cc_pd bond, 20-membered ring, Pd(OAc)2/Cu(OAc)2, DMF/DMSO 9:1, 1.36 mM, 70.0 °C) was 20%.

Molecule `CCOC(=O)CCc1cccc(C2CCCC(C)(C)CSCCc3c(c(F)cc4[nH]ccc34)Oc3ccc(F)c(c3)-c3nn2cc3C#N)c1` (stereo not shown) has a ring closure, isolated yield (from CCOC(=O)CCc1cccc(C(O)CCCC(C)(C)CSCCc2c(Oc3ccc(F)c(-c4n[nH]cc4C#N)c3)c(F)cc3[nH]ccc23)c1, other bond, 18-membered ring, cyanomethylenetributylphosphorane, 1,4-dioxane, 40.9 mM, 150.0 °C, 0.67 h) of 46%.

With `COC(=O)/C1=C\c2c(c(F)cc3[nH]ccc23)Oc2cccc(c2)-c2ccn(n2)C(c2cccc(Br)c2)CCCC(C)(C)CS1(=O)=O` (stereo not shown) the ring closure, isolated yield (from COC(=O)CS(=O)(=O)CC(C)(C)CCCC(c1cccc(Br)c1)n1ccc(-c2cccc(Oc3c(F)cc4[nH]ccc4c3C=O)c2)n1, other bond, 18-membered ring, piperidine/rest truncated, toluene, 3.5 mM, 100.0 °C) was 43%.

With `COC(=O)[C@@H](C)Cc1cccc([C@@]2(C)CCCC(C)(C)CS(=O)(=O)/C=C/c3c(c(F)c(F)c4[nH]ccc34)Sc3ccc(F)c(c3)-c3nc2nn3C)c1` the ring closure, isolated yield (from C=CS(=O)(=O)CC(C)(C)CCC[C@](C)(c1cccc(C[C@H](C)C(=O)OC)c1)c1nc(-c2cc(Sc3c(F)c(F)c4[nH]ccc4c3Br)ccc2F)n(C)n1, cc_pd bond, 18-membered ring, Pd(PtBu3)2/Et3N, toluene, 9.7 mM, 120.0 °C, 4.0 h) was 80%.

Work on `COC(=O)[C@@H](C)Cc1cccc([C@@]2(C)CCCC(C)(C)CS(=O)(=O)/C=C/c3c(c(F)cc4[nH]ccc34)Sc3ccc(F)c(c3)-c3nc2nn3C)c1` yielded a ring closure, isolated yield (from C=CS(=O)(=O)CC(C)(C)CCC[C@](C)(c1cccc(C[C@H](C)C(=O)OC)c1)c1nc(-c2cc(Sc3c(F)cc4[nH]ccc4c3Br)ccc2F)n(C)n1, cc_pd bond, 18-membered ring, Pd(PtBu3)2/Et3N, toluene, 25.9 mM, 120.0 °C, 2.5 h) of 69%.

Molecule `COC(=O)[C@H](C)Cc1cccc(C2(C)CCCC(C)(C)CS(=O)(=O)/C=C/c3c(c(F)cc4c3ccn4S(=O)(=O)c3ccc(C)cc3)Oc3ccc(F)c(c3)-c3ccn2n3)c1` (stereo partly shown) has a ring closure, isolated yield (cc_pd bond, 18-membered ring, Pd(PtBu3)2/Et3N, toluene, 0.65 mM, 100.0 °C) of 11%.

Molecule `COC(=O)[C@H](C)Cc1cccc(C2(C)CCCC(C)(C)CS(=O)(=O)C=Cc3c(c(F)cc4[nH]ccc34)Oc3ccc(F)c(c3)-c3nc2nn3C)c1` (stereo partly shown) has a ring closure, isolated yield (from C=CS(=O)(=O)CC(C)(C)CCCC(C)(c1cccc(C[C@@H](C)C(=O)OC)c1)c1nc(-c2cc(Oc3c(F)cc4[nH]ccc4c3Br)ccc2F)n(C)n1, cc_pd bond, 18-membered ring, Pd(PtBu3)2/second reagent truncated, toluene, 8.15 mM, 2.0 h) of 48%.

Molecule `COC(=O)[C@H](C)Cc1cccc([C@@]2(C)CCCC(C)(C)CS(=O)(=O)/C=C/c3c(c(F)c(F)c4[nH]ccc34)Oc3ccc(F)c(c3)-c3nc2nn3C)c1` has a ring closure, isolated yield (from C=CS(=O)(=O)CC(C)(C)CCC[C@](C)(c1cccc(C[C@@H](C)C(=O)OC)c1)c1nc(-c2cc(Oc3c(F)c(F)c4[nH]ccc4c3Br)ccc2F)n(C)n1, cc_pd bond, 18-membered ring, Pd(PtBu3)2/Et3N, toluene, 10.8 mM, 120.0 °C, 3.5 h) of 68%.

`COC(=O)[C@H](C)Cc1cccc([C@@]2(C)CCCC(C)(C)CS(=O)(=O)/C=C/c3c(c(F)c(F)c4[nH]ccc34)Sc3ccnc(c3)-c3nc2nn3C)c1` showed a ring closure, isolated yield (cc_pd bond, 18-membered ring, Pd(PtBu3)2/Et3N, toluene, 21.3 mM, 120.0 °C) of 56%.

`COC(=O)[C@H](C)Cc1cccc([C@@]2(C)CCCC(C)(C)CS(=O)(=O)C=Cc3c(c(F)cc4[nH]ccc34)Oc3ccnc(c3)-c3nc2nn3C)c1` gave a ring closure, isolated yield (from C=CS(=O)(=O)CC(C)(C)CCC[C@](C)(c1cccc(C[C@@H](C)C(=O)OC)c1)c1nc(-c2cc(Oc3c(F)cc4[nH]ccc4c3Br)ccn2)n(C)n1, cc_pd bond, 18-membered ring, Pd(PtBu3)2/Et3N, toluene, 2.74 mM, 120.0 °C, 4.0 h) of 64%.

Molecule `Cn1nc2nc1-c1cc(ccc1F)Oc1c(F)cc3c(ccn3COCc3ccccc3)c1/C=C/S(=O)(=O)CCCCOC2c1cccc(CCCO)c1` (stereo not shown) has a ring closure, isolated yield (from Cn1nc(C(OCCCCS(C)(=O)=O)c2cccc(CCCO)c2)nc1-c1cc(Oc2c(F)cc3c(ccn3COCc3ccccc3)c2C=O)ccc1F, other bond, 18-membered ring, NaH, DMF, 19.4 mM) of 26%.

`Cn1nc2nc1-c1cc(ccc1F)Oc1c(F)cc3c(ccn3S(=O)(=O)c3ccccc3)c1Cn1cc(cn1)C(C)(C)CSCCC2(C)c1cccc(Br)c1` (stereo not shown) showed a ring closure, isolated yield (from Cn1nc(C(C)(CCSCC(C)(C)c2cn[nH]c2)c2cccc(Br)c2)nc1-c1cc(Oc2c(F)cc3c(ccn3S(=O)(=O)c3ccccc3)c2CO)ccc1F, other bond, 19-membered ring, cyanomethylenetributylphosphorane, toluene, 14.0 mM, 110.0 °C, 4.0 h) of 37%.

`O=Cc1c(Oc2ccc(F)c(-c3ncc(C(CCCCCCS(=O)(=O)CC(=O)O)c4cccc(I)c4)[nH]3)c2)c(F)cc2[nH]ccc12` (stereo not shown) showed a ring closure, isolated yield (the molecule shown is the open-chain precursor, other bond, 19-membered ring, piperidine/AcOH, toluene, 2.7 mM, 100.0 °C) of 10%.

Molecule `[2H]C([2H])([2H])n1nc2nc1-c1cc(ccc1F)Oc1c(F)cc3[nH]ccc3c1C=C(C(=O)OCC)S(=O)(=O)CCCCCC2(C)c1cccc(OCC(=O)OCC)c1` (stereo not shown) has a ring closure, isolated yield (from [2H]C([2H])([2H])n1nc(C(C)(CCCC(C)(C)CS(=O)(=O)CC(=O)OCC)c2cccc(OCC(=O)OCC)c2)nc1-c1cc(Oc2c(F)cc3[nH]ccc3c2C=O)ccc1F, other bond, 18-membered ring, piperidine/AcOH, toluene, 2.6 mM, 110.0 °C) of 52%.

In the case of `C[C@@H](Cc1cccc([C@@]2(C)CCCC(C)(C)CS(=O)(=O)CCc3c(c(F)cc4[nH]ccc34)[S+]([O-])c3cccc(c3)-c3nc2co3)c1)C(=O)O` (stereo partly drawn) [Compound 294, (2S)-3-[3-[(6R)-22-fluoro-6,10,10-trimethyl-12,12,24-trioxo-3-oxa-12λ6,24λ4-dithia-19,30-diazapentacyclo[23.3.1.12,5.015,23.016,20]triaconta-1(29),2(30),4,15,17,20,22,25,27-nonaen-6-yl]phenyl]-2-methyl-propanoic Acid], the “TECC (AUC, 10 μM)” value (CFTR) is reported as “A (a TECC value less than 12 is marked “A”)” and the “DSLS 3D (100 μM ΔT)” value (NBD1) is reported as “C (a value greater than 10 °C and less than or equal to 25 °C is marked “C”)”.

For `Cn1nc2nc1-c1cc(ccc1F)Oc1c(F)cc3[nH]ccc3c1CCS(=O)(=O)CCCCOC2c1cccc(CCCO)c1` (stereo not shown) [Compound 296, 3-[3-(22,28-Difluoro-3-methyl-12,12-dioxo-7,24-dioxa-12lambda6-thia-3,4,19,30-tetrazapentacyclo[23.3.1.^12,5.0^15,23.0^16,20]triaconta-1(29),2(30),4,15(23),16(20),17,21,25,27-nonaen-6-yl)phenyl]propan-1-ol], the “TECC (AUC, 10 μM)” value (CFTR) was “A (a TECC value less than 12 is marked “A”)” and the “DSLS 3D (100 μM ΔT)” value (NBD1) was “A (an ΔTagg value less than or equal to 5 °C is marked “A”)”.

For `Cn1nc2nc1-c1cc(ccc1F)Oc1c(F)cc3[nH]ccc3c1CCS(=O)(=O)CCCCOC2c1cccc(CCC(=O)O)c1` (stereo not shown) [Compound 297, 3-[3-(22,28-Difluoro-3-methyl-12,12-dioxo-7,24-dioxa-12λ6-thia-3,4,19,30-tetrazapentacyclo[23.3.1.12,5.015,23.016,20]triaconta-1(29),2(30),4,15(23),16(20),17,21,25,27-nonaen-6-yl)phenyl]propanoic Acid], the “TECC (AUC, 10 μM)” value (CFTR) was “A (a TECC value less than 12 is marked “A”)” and the “DSLS 3D (100 μM ΔT)” value (NBD1) was “B (a value above 5 °C and less than or equal to 10 °C is marked “B”)”.

“Diastereomer 1 of methyl 3-methoxy-2-(3-((R,1^4Z,5E)-2^6,4^6,4^7-trifluoro-1^1,9,9,13-tetramethyl-4^1-(methylsulfonyl)-7,7-dioxido-1^1H,4^1H-3,7-dithia-4(5,4)-indola-1(5,3)-triazola-2(1,3)-benzenacyclotridecaphan-5-en-13-yl)benzyl)propanoate” showed a ring closure, isolated yield (cc_pd bond, 18-membered ring, chloro[(tBu3P)(2-aminobiphenyl-2-yl)Pd(II)]/tBu3P-HBF4/Cy2NMe, toluene, 16.8 mM, 120.0 °C) of 68%.

Molecule “methyl (2R)-3-[3-[(14E)-23,29-difluoro-7,11,11-trimethyl-13,13-dioxo-20-(p-tolylsulfonyl)-25-oxa-13 6-thia-5,6,20-triazapentacyclo[24.3.1.02,6.016,24.017,21]triaconta-1(30),2,4,14,16,18,21,23,26,28-decaen-7-yl]phenyl]-2-methyl-propanoate” has a ring closure, isolated yield (cc_pd bond, 17-membered ring, Pd(PtBu3)2/Et3N, toluene, 0.65 mM, 100.0 °C) of 23%.
